Measured values published in PubChem BioAssay AID1963958 (Molecular Pharmacology Branch, DTP, NCI, 2024).

Tested on: MDA-MB-231 multicell spheroids, viability
Experiment: Anticancer human tumor MDA-MB-231 cell line growth inhibition [PI3K];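 also: spheroids exposed to agents for seven days before reading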;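 as to viability, T/C: percent of vehicle control luminescence with DMSO treated spheroids as 100%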
Conditions: for IC50: curve of first compound; for viability, T/C: stronger effect = lower value
Method in brief: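 Combination activity was assessed by viability in multicellular tumor spheroids carrying HUVEC and MSC components. Agents were tested with PI3K inhibitors from a Cmax-based top dose (or 10 microM) downward in half-log increments.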

[1] = second compound 0.0316 µM, first compound 0.000316 µM
[2] = second compound 0.0316 µM, first compound 0.001 µM
[3] = second compound 0.0316 µM, first compound 0.00316 µM
[4] = second compound 0.0316 µM, first compound 0.01 µM
[5] = second compound 0.0316 µM, first compound 0.0316 µM
[6] = second compound 0.0316 µM, first compound 0.1 µM
[7] = second compound 0.1 µM, first compound 0.000316 µM
[8] = second compound 0.1 µM, first compound 0.001 µM
[9] = second compound 0.1 µM, first compound 0.00316 µM
[10] = second compound 0.1 µM, first compound 0.01 µM
[11] = second compound 0.1 µM, first compound 0.0316 µM
[12] = second compound 0.1 µM, first compound 0.1 µM
[13] = second compound 0.316 µM, first compound 0.000316 µM
[14] = second compound 0.316 µM, first compound 0.001 µM
[15] = second compound 0.316 µM, first compound 0.00316 µM
[16] = second compound 0.316 µM, first compound 0.01 µM
[17] = second compound 0.316 µM, first compound 0.0316 µM
[18] = second compound 0.316 µM, first compound 0.1 µM
[19] = second compound 1 µM, first compound 0.000316 µM
[20] = second compound 1 µM, first compound 0.001 µM
[21] = second compound 1 µM, first compound 0.00316 µM
[22] = second compound 1 µM, first compound 0.01 µM
[23] = second compound 1 µM, first compound 0.0316 µM
[24] = second compound 1 µM, first compound 0.1 µM
[25] = second compound 3.16 µM, first compound 0.000316 µM
[26] = second compound 3.16 µM, first compound 0.001 µM
[27] = second compound 3.16 µM, first compound 0.00316 µM
[28] = second compound 3.16 µM, first compound 0.01 µM
[29] = second compound 3.16 µM, first compound 0.0316 µM
[30] = second compound 3.16 µM, first compound 0.1 µM
[31] = second compound 10 µM, first compound 0.000316 µM
[32] = second compound 10 µM, first compound 0.001 µM
[33] = second compound 10 µM, first compound 0.00316 µM
[34] = second compound 10 µM, first compound 0.01 µM
[35] = second compound 10 µM, first compound 0.0316 µM
[36] = second compound 10 µM, first compound 0.1 µM

In the case of `CC(=O)c1c(C)c2cnc(Nc3ccc(N4CCNCC4)cn3)nc2n(C2CCCC2)c1=O` + CC(Nc1ncnc2nc[nH]c12)c1cc2cccc(Cl)c2c(=O)n1-c1ccccc1, the IC50 (second compound 0.0316 µM) is reported as greater than 100 nM, the IC50 (second compound 0.1 µM) is reported as 86.2 nM and the IC50 (second compound 0.316 µM) is reported as 75.3 nM. The IC50 (second compound 1 µM) was 36.1 nM, the IC50 (second compound 3.16 µM) was 11.4 nM and the IC50 (second compound 10 µM) was less than 0.316 nM. For the same compound, the viability, T/C [1] was 96.8%, the viability, T/C [2] was 107% and the viability, T/C [3] was 92.6%. The viability, T/C [4] was 90.6%, the viability, T/C [5] was 72.8% and the viability, T/C [6] was 53.2%. It also gave a viability, T/C [7] of 98.8%, a viability, T/C [8] of 99.6% and a viability, T/C [9] of 96.1%. For the same compound, the viability, T/C [10] was 80.5%, the viability, T/C [11] was 71.3% and the viability, T/C [12] was 46.5%. For the same compound, the viability, T/C [13] was 86.8%, the viability, T/C [14] was 90% and the viability, T/C [15] was 92.6%. It also gave a viability, T/C [16] of 83.5%, a viability, T/C [17] of 66.6% and a viability, T/C [18] of 44.6%. The viability, T/C [19] was 79.2%, the viability, T/C [20] was 79.9% and the viability, T/C [21] was 78.4%. The viability, T/C [22] was 65.1%, the viability, T/C [23] was 52.9% and the viability, T/C [24] was 36%. For the same compound, the viability, T/C [25] was 62.5%, the viability, T/C [26] was 60.1% and the viability, T/C [27] was 55.3%. The viability, T/C [28] was 51.1%, the viability, T/C [29] was 43.1% and the viability, T/C [30] was 29.6%. The viability, T/C [31] was 42.6%, the viability, T/C [32] was 47.5% and the viability, T/C [33] was 41.2%. For the same compound, the viability, T/C [34] was 38%, the viability, T/C [35] was 36.1% and the viability, T/C [36] was 19%.
Work on `CC(C)n1nc(-c2ccc3oc(N)nc3c2)c2c(N)ncnc21` + CC(Nc1ncnc2nc[nH]c12)c1cc2cccc(Cl)c2c(=O)n1-c1ccccc1 yielded an IC50 (second compound 0.0316 µM) of 64.4 nM, an IC50 (second compound 0.1 µM) of 65.5 nM and an IC50 (second compound 0.316 µM) of 51.9 nM. For the same compound, the IC50 (second compound 1 µM) was 32.7 nM, the IC50 (second compound 3.16 µM) was 12.5 nM and the IC50 (second compound 10 µM) was less than 0.316 nM. The viability, T/C [1] was 94.1%, the viability, T/C [2] was 101% and the viability, T/C [3] was 93.1%. It also gave a viability, T/C [4] of 85.6%, a viability, T/C [5] of 65.5% and a viability, T/C [6] of 40.5%. For the same compound, the viability, T/C [7] was 101%, the viability, T/C [8] was 100% and the viability, T/C [9] was 91.9%. The viability, T/C [10] was 79.7%, the viability, T/C [11] was 66.2% and the viability, T/C [12] was 41%. For the same compound, the viability, T/C [13] was 91.7%, the viability, T/C [14] was 90.2% and the viability, T/C [15] was 87.2%. For the same compound, the viability, T/C [16] was 72.8%, the viability, T/C [17] was 58.8% and the viability, T/C [18] was 39.4%. It also gave a viability, T/C [19] of 80.5%, a viability, T/C [20] of 78% and a viability, T/C [21] of 76.1%. It also gave a viability, T/C [22] of 68.5%, a viability, T/C [23] of 50% and a viability, T/C [24] of 39.2%. It also gave a viability, T/C [25] of 62.1%, a viability, T/C [26] of 64.9% and a viability, T/C [27] of 57.8%. For the same compound, the viability, T/C [28] was 50.8%, the viability, T/C [29] was 43.4% and the viability, T/C [30] was 31.8%. It also gave a viability, T/C [31] of 49.2%, a viability, T/C [32] of 44.6% and a viability, T/C [33] of 42.4%. For the same compound, the viability, T/C [34] was 35.9%, the viability, T/C [35] was 30.1% and the viability, T/C [36] was 24.2%.
